Experimental data as given in patent publication US20060121498A1, “Enzymes involved in apoptosis” (EiRx Therapeutics Limited, priority 2003, published 2006).
Where two headings read alike, the source gives them in different places.

Columns and labels:
[1] = cited from earlier work
neutrophils = assay: Neutrophil apoptosis, sub G1 analysis (DNA fragmentation); assay type: cell-based, human
Method: Neutrophils are isolated from the blood as described in WO 02/04657 and resuspended at a concentration of 2×10^6/ml. Five hundred microlitres are pipetted into wells of a 24 well plate and incubated in the presence or absence of survival factors.
After this incubation, the neutrophils are carefully resuspended by gentle agitation and the total contents of the well are placed into an eppendorf and centrifuged @2800 rpm for 2 min @ RT in a minifuge. The cell pellet is carefully resuspended in 300 μl of ice cold hypotonic fluorochrome solution (50 μg/ml Propidium Iodide, 0.1% Sodium Citrate and 0.1% Triton X-100) and placed in a fridge for 24 h @ 4° C.
Prepared samples are analysed with a FacsCalibre flow cytometer (Becton Dickinson) using double discrimination to ensure single cell suspension with Log Forward and Side Scatter Parameter acquisition.
Neutrophils are seeded at 2×10^6/ml in a 24 well plate in full culture medium (1 ml/well). A PI3K inhibitor (Ly94002) is added to the neutrophils to a final concentration of 20 μM prior to the addition of GM-CSF (50 units/ml). Control wells received either no GM-CSF or GM-CSF (50 units/ml) in the absence of inhibitor. Neutrophils are cultured for 18 h at 37° C. prior to harvest and prepared for sub G1 analysis, as previously described.
Neutrophils are seeded at 2×10^6/ml in a 24 well plate in full culture medium (1 ml/well). […]

MIAPaCa-2 and HuTu80 = conditions: cited from earlier work
CAL27 tumour cell line = conditions: relatively low basal DPD activity; cited from earlier work
MIAPaCa-2 cells = conditions: nude mouse, subcutaneous MIAPaCa-2; cited from earlier work
Walker 256 tumour = conditions: diet of 5.5% GLA; cited from earlier work
bone marrow derived DC = conditions: pretreatment; cited from earlier work
[2] = tested on: MCF-7 human breast cancer cells; conditions: inhibition of FAS with cerulenin; cited from earlier work
[3] = tested on: redox related genes such as heme oxygenase 1 and Glutathione reductase; conditions: cited from earlier work
TF-1 cells [4] = assay: Overexpression of identified genes in TF1 cells, viability by FSc/SSc; assay type: cell-based, human; conditions: 96 h post transduction, versus control plasmid Pms*H
Text: To assess the apoptotic activity of the apoptosis-associated genes identified herein, TF1 cells are transduced with either a plasmid expressing the gene of interest coding sequence or a control plasmid (PMs*H). The gene coding sequence encoding the amino acid sequence set out in Table 1 is cloned into the retroviral expression vector pMSCV (Clontech). Plasmids are transfected into the retroviral packaging cell line Phoenix 293 (Standford) using the CalPhos Mammalian Transfection Kit (Clontech) according to the manufacturer's instructions. Retrovirus is harvested 72 hours later. Retrovirus is transduced to TF 1 cells by incubation for 18 hours. Media is changed and cells are incubated for an additional 96 hours.
The cells are examined for viability after 96 hours using forward scatter/side scatter parameters.

TF-1 cells [5] = assay: TF-1 apoptosis by light scatter analysis (live gate); assay type: cell-based, human; conditions: 48 h with GM-CSF 2 ng/ml (35% upon factor withdrawal)
Method: Light Scatter Analysis takes advantage of the fact that by using the laser beam of a flow cytometer one can determine the size (Forward Scatter) and granularity (Side Scatter) of a cell. The morphological changes associated with apoptosis, such as decreased size (shrinkage) and granularity affect these parameters. As a consequence, cells undergoing apoptosis will move to the left and slightly down, from the parameters of a healthy population.
TF-1 cells are plated into 24 well plates (2×10^5/ml) and are cultured for 48 h in the presence or absence of GM-CSF (2 ng/ml). Cells are then harvested by centrifugation (1000 rpm, for 10 min) and washed in PBS. The pellet is resuspended in PBS (2×10^5 cells/ml) and acquired by a FacsCalibre. Forward and Side scatter parameters are assessed using Cell Quest software.
Culturing TF-1 cells in the absence of GM-CSF induces cell death. This death induces morphological changes in the Forward and Side Scatter parameters that is detected by FacsCalibre analysis. Consequently, by observing the percentage of cells in the live gate (which is an arbitrary region pre-set on a healthy population of TF-1 cells grown in the presence of GM-CSF (2 ng/ml)), one observes that there is a decrease in the percentage of cells with these light scatter parameters, when cytokine is withdrawn.

TF-1 cells [6] = assay: TF-1 apoptosis by sub G1 analysis; assay type: cell-based, human; conditions: 48 h with GM-CSF (approximately 55% in its absence)
Method: TF-1 cells are cultured for 48 h in the presence or absence of GM-CSF (2 ng/ml). Cells are then harvested by centrifugation (1000 rpm, for 10 min) and washed in PBS. The pellet is resuspended in PBS (2×10^5 cells/ml) and 1 ml is then added in a dropwise fashion to ice cold 70% EtoH whilst continuously vortexing. Cells are then permeabilized by incubating at −20° C. for 24 h. To stain DNA, cells are centrifuged and washed in PBS. Cells are resuspended in 500 μl Propidium Iodide Buffer (Propidium iodide (50 μg/ml; Sigma); RNAse A (50 μg/ml; Sigma) in Phosphate Buffered Saline (PBS; Sigma) for 15 min in the dark before flow cytometric analysis using a FacsCalibre (Becton Dickinson). Analysis is performed using Cell Quest software.

[7] = relatively high basal DPD activity

## O=c1[nH]cc(F)c(=O)[nH]1 [5FU, 5-fluorouracil]
[1]; patients with a decreased DPD activity
  patients suffering from grade IV neutropenia: 55%
[1]; patients with a normal DPD activity
  patients suffering from grade IV neutropenia: 13%

## CCCCCCCCCCCCCCCCCCOC(=O)OC1C(O)C(O)C(CO)C(O)C1OC (stereo not shown) [AKT inhibitor]
neutrophils; inhibitor 20 μM plus GM-CSF 50 units/ml, 18 h
  GM-CSF mediated survival, sub G1 analysis: survival is abrogated

## Oc1cc(O)c(Cl)cn1 [CDHP, 5-chloro-2,4-dihydroxypyridine]
MIAPaCa-2 and HuTu80; enhancement of 5-FU cytotoxicity
  molar ratio (CDHP:5-FU) at maximum effect: more than 0.2
MIAPaCa-2 and HuTu80; in vitro study
  cell proliferation, CDHP by itself: did not influence cell proliferation by itself
MIAPaCa-2 and HuTu80; [7]
  5-FU cytotoxicity: enhanced 5-FU cytotoxicity in a concentration-dependent manner
  5-fluorouracil (5-FU) degradation: inhibit 5-fluorouracil (5-FU) degradation
CAL27 tumour cell line
  5-FU cytotoxicity: did not have any effect on 5-FU cytotoxicity

## O=c1[nH]c(=O)n(C2CCCO2)cc1F (stereo not shown) [FT, tegafur]
MIAPaCa-2 cells
  tumour growth inhibition: 21+/−25%

## CCCCC/C=C\C/C=C\C/C=C\CCCCC(=O)O [GLA, Gamma-linolenic acid]
Walker 256 tumour
  decrease in CTP1 activity: 62%
  reduction of tumour growth: 45%

## N[C@H]1CONC1=O [L-cycloserine]
Bone marrow derived DC
  endogenous ceramide levels and tumor-induced DC apoptosis: reduced endogenous ceramide levels and protected DC from tumor-induced apoptosis

## CCCCCCCCCCCCCC(=O)O[C@@H]1[C@@H](C)[C@@]2(O)[C@@H](C=C(CO)C[C@]3(O)C(=O)C(C)=C[C@@H]23)[C@@H]2C(C)(C)[C@]12OC(C)=O [PMA]
Bone marrow derived DC
  endogenous ceramide levels and tumor-induced DC apoptosis: reduced endogenous ceramide levels and protected DC from tumor-induced apoptosis

## C/C=C/C/C=C/CCC(=O)[C@H]1O[C@H]1C(N)=O [cerulenin]
[2]
  CPT-1 and fatty acid oxidation: causes carnitine palmitoyltransferase-1 (CPT-1) inhibition and fatty acid oxidation inhibition

## CCOC(=O)[C@@]1(CCCCCCOc2ccc(Cl)cc2)CO1 [etomoxir]
[3]
  expression of redox related genes: induces up regulation of redox related genes

## ELAFIN
TF-1 cells [4]
  apoptosis/viability by FSc/SSc parameters: induces apoptosis in TF-1 cells

## GM-CSF: 22 kDa proinflammatory cytokine released by several activated cell types including monocytes and T cells
neutrophils; neutrophils cultured overnight with GM-CSF (65% without)
  percentage of cells with a sub G1 profile: 9.7%
TF-1 cells [5]
  percentage of cells in the live gate: 77%
TF-1 cells [6]
  cells with sub-G1 profiles: 5%
